Measurements as given in US20260250257A1, “ANTIBACTERIAL AND SYNERGISTIC ACTIVE COMPOUND AND USE THEREOF” (EAST CHINA UNIVERSITY OF SCIENCE AND TECHNOLOGY, priority 2023, published 2026).
In brackets after ≈: the same amount, converted by molar mass.

Columns and labels:
Assay type in all cases: cell-based
[1] = tested on: ATCC13883 strain (Klebsiella pneumoniae); test: Checkerboard antibacterial synergistic activity test with polymyxin E (FIC); set-up: key: FIC≤0.5 synergy; 0.5–1 additive; 1–2 indifferent; ≥2 antagonism; conditions: combined with polymyxin E
In short: (§1)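 Checkerboard in MH broth: colistin dilutions 16→0.015 μg/ml × test drug 256→4 μg/ml (concentrations before adding inoculum); drug mix plus bacteria, 37° C., 16 h. FIC cut-offs: ≤0.5 synergy; 0.5–1 additive; 1–2 indifferent; ≥2 antagonism.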

[2] = tested on: ATCC25922 strain (Escherichia coli); test: as above; set-up: key: FIC≤0.5 synergy; 0.5–1 additive; 1–2 indifferent; ≥2 antagonism; conditions: combined with polymyxin E
In short: as §1

[3] = tested on: ATCC19606 strain (Acinetobacter baumannii); test: as above; set-up: key: FIC≤0.5 synergy; 0.5–1 additive; 1–2 indifferent; ≥2 antagonism; conditions: combined with polymyxin E
In short: as §1

[4] = tested on: ATCC9027 strain (Pseudomonas aeruginosa); test: as above; set-up: key: FIC≤0.5 synergy; 0.5–1 additive; 1–2 indifferent; ≥2 antagonism; conditions: combined with polymyxin E
In short: as §1

[5] = tested on: ATCC13883 strain (Klebsiella pneumoniae); test: Broth microdilution, antibacterial activity of the compound used alone; conditions: for MIC: read-out: Antibacterial activity of the compound of Formula I, ATCC13883
Excerpt: (§2) The broth microdilution method was used to test the antibacterial effects of the compounds of the present invention against various Gram-negative bacterial strains when used alone.

[6] = tested on: ATCC25922 strain (Escherichia coli); test: as above; conditions: for MIC: read-out: Antibacterial activity of the compound of Formula I, ATCC25922
Excerpt: as §2

[7] = tested on: ATCC19606 strain (Acinetobacter baumannii); test: as above; conditions: for MIC: read-out: Antibacterial activity of the compound of Formula I, ATCC19606
Excerpt: as §2

[8] = tested on: ATCC9027 strain (Pseudomonas aeruginosa); test: as above; conditions: for MIC: read-out: Antibacterial activity of the compound of Formula I, ATCC9027
Excerpt: as §2

SMILES | Synergistic activity (FIC value) ATCC13883 [1] | Synergistic activity (FIC value) ATCC25922 [2] | Synergistic activity (FIC value) ATCC19606 [3] | Synergistic activity (FIC value) ATCC9027 [4] | Antibacterial activity of the compound of Formula I, ATCC13883 [5] [µg/mL] | Antibacterial activity of the compound of Formula I, ATCC25922 [6] [µg/mL] | Antibacterial activity of the compound of Formula I, ATCC19606 [7] [µg/mL] | Antibacterial activity of the compound of Formula I, ATCC9027 [8] [µg/mL] | MIC [5] [µg/mL] | MIC [6] [µg/mL] | MIC [7] [µg/mL] | MIC [8] [µg/mL]
NC(N)=Nc1nc(-c2cccc(C(=O)Nc3ccccc3)c2)cs1 [Compound I-110] | 0.31 | 0.56 | 0.25 | 0.5 | 256 | 256 | 256 | 256 |  |  |  | 
NC(N)=Nc1nc(-c2cccc(NS(=O)(=O)c3ccccc3)c2)cs1 [Compound I-111] | 0.25 | 0.63 | 0.5 | 1.25 |  |  |  |  | 256 (≈ 685 µM) | 256 (≈ 685 µM) | 256 (≈ 685 µM) | 256 (≈ 685 µM)
NC(N)=Nc1nc(-c2cc3ccccc3o2)cs1 [Compound I-112] | 1.25 | 1.25 | 0.51 | 0.52 |  |  |  |  | 256 (≈ 991 µM) | 256 (≈ 991 µM) | 256 (≈ 991 µM) | 256 (≈ 991 µM)
NC(N)=Nc1nc(-c2cc(OCc3ccccc3)no2)cs1 [Compound I-113] | 1.25 | 0.53 | 1.25 | 1.25 |  |  |  |  | 128 (≈ 406 µM) | 128 (≈ 406 µM) | 256 (≈ 812 µM) | 64 (≈ 203 µM)
NC(N)=Nc1nc(-c2ccc(OCc3ccccc3)c3nc(O)ccc23)cs1 [Compound I-114] | 1.25 | 0.5 | 0.27 | 1.25 |  |  |  |  | 256 (≈ 654 µM) | 256 (≈ 654 µM) | 256 (≈ 654 µM) | 256 (≈ 654 µM)
NC(N)=Nc1nc(-c2cccc3c2C(F)(F)c2cc(Br)ccc2-3)cs1 [Compound I-115] | 1.25 | 1.25 | 1.25 | 1.25 |  |  |  |  | 256 (≈ 608 µM) | 256 (≈ 608 µM) | 256 (≈ 608 µM) | 256 (≈ 608 µM)
NC(N)=Nc1nc(-c2cc(Cl)cc3c2Cc2ccc(Cl)cc2-3)cs1 [Compound I-116] | 0.63 | 0.5 | 0.25 | 1.25 | 256 | 256 | 256 | 256 |  |  |  | 
NC(N)=Nc1nc(C2CC3CC4CC3CC2C4)cs1 (stereo not shown) [Compound I-117] | 0.25 | 0.63 | 0.5 | 1.25 |  |  |  |  | 64 (≈ 232 µM) | 32 (≈ 116 µM) | 256 (≈ 926 µM) | 16 (≈ 57.9 µM)
NC(N)=Nc1nc(-c2c(S(N)(=O)=O)csc2Cl)cs1 [Compound I-118] | 0.19 | 1.25 | 1.25 | 1.25 |  |  |  |  | 256 (≈ 758 µM) | 256 (≈ 758 µM) | 256 (≈ 758 µM) | 256 (≈ 758 µM)
NC(N)=Nc1nc(-c2ccc3c(c2)COc2c-3ccc3c2C(=O)CCC3)cs1 [Compound I-119] | 0.19 | 1.25 | 1.25 | 1.25 | 256 | 256 | 256 | 256 |  |  |  | 
NC(N)=Nc1nc(-c2cccc(N3CCOCC3)c2)cs1 [Compound I-120] | 0.28 | 0.75 | 1.25 | 0.25 | 256 | 256 | 256 | 256 |  |  |  | 
NC(N)=Nc1nc(-c2ccc(O)c(CO)c2)cs1 [Compound I-121] | 1.25 | 0.56 | 1.25 | 1.25 |  |  |  |  | 256 (≈ 969 µM) | 256 (≈ 969 µM) | 256 (≈ 969 µM) | 256 (≈ 969 µM)
NC(N)=Nc1nc(-c2ccc3ccccn23)cs1 [Compound I-122] | 0.56 | 0.38 | 0.56 | 0.75 | 256 | 256 | 256 | 256 |  |  |  | 
CSc1cc2ccccn2c1-c1csc(N=C(N)N)n1 [Compound I-123] | 0.09 | 0.14 | 0.31 | 0.06 |  |  |  |  | 256 (≈ 844 µM) | 256 (≈ 844 µM) | 256 (≈ 844 µM) | 256 (≈ 844 µM)
CSc1cc2c(C)cccn2c1-c1csc(N=C(N)N)n1 [Compound I-124] | 0.19 | 0.04 | 0.38 | 0.04 | 256 | 256 | 256 | 256 |  |  |  | 
CSc1cc2cc(C)ccn2c1-c1csc(N=C(N)N)n1 [Compound I-125] | 0.16 | 0.18 | 0.03 | 0.28 | 256 | 256 | 256 | 256 |  |  |  | 
CSc1cc2ccc(C)cn2c1-c1nc(N=C(N)N)sc1C [Compound I-126] | 0.13 | 0.2 | 0.04 | 0.28 | 256 | 256 | 256 | 256 |  |  |  | 
